± gives the standard deviation of the averaged measurements.
tested on: HCI-011.E2 (organoid from an ER-positive breast cancer xenograft); assay: CTG-3D luminescence at 96 h relative to day-0 seeding control (ratio to day 0); higher = more growth / less cytotoxicity; PDxO 3D drug screen, 96 h, CTG-3D normalised to day-0 seeding control.; details: 100 µM; days in culture: 74

| Compound | CTG-3D luminescence at 96 h |
| --- | --- |
| NC1(C(=O)N[C@@H](CCO)c2ccc(Cl)cc2)CCN(c2nc[nH]c3nccc2-3)CC1 [capivasertib] | 0.307 |
| CC(C)n1nc(-c2ccc3oc(N)nc3c2)c2c(N)ncnc21 [sapanisertib] | 0.26 |
| O=C(c1ccc(F)c(F)c1Nc1ccc(I)cc1F)N1CC(O)([C@@H]2CCCCN2)C1 [cobimetinib] | 0.00131 |
| C[C@H](NC(=O)CCC(F)(F)F)C(=O)N[C@@H]1C(=O)N(CCO)c2ncccc2-c2ccccc21 [crenigacestat] | 2.45 |
| Cc1cc(Nc2ncc(Cl)c(Nc3ccccc3S(=O)(=O)C(C)C)n2)c(OC(C)C)cc1C1CCNCC1 [ceritinib] | -0.00371 |
| CS(=O)(=O)c1ccc(C(=O)Nc2ccc(Cl)c(-c3ccccn3)c2)c(Cl)c1 [vismodegib] | 1.49 |
| NC(=O)c1cccc2cn(-c3ccc([C@@H]4CCCNC4)cc3)nc12 [niraparib] | 0.00301 |
| Cc1cc(Nc2ncnc3ccc(NC4=NC(C)(C)CO4)cc23)ccc1Oc1ccn2ncnc2c1 [tucatinib] | 0.399 |
| CCN(c1cc(C#CCN2CCOCC2)cc(C(=O)NCc2c(C)cc(C)[nH]c2=O)c1C)[C@H]1CC[C@H](N(C)CCOC)CC1 | 2.8 |

same assay, conditions: 625 fM

| Compound | CTG-3D luminescence at 96 h |
| --- | --- |
| NC1(C(=O)N[C@@H](CCO)c2ccc(Cl)cc2)CCN(c2nc[nH]c3nccc2-3)CC1 [capivasertib] | 1.8 ± 0.42 |
| CC(C)n1nc(-c2ccc3oc(N)nc3c2)c2c(N)ncnc21 [sapanisertib] | 1.74 ± 0.5 |
| O=C(c1ccc(F)c(F)c1Nc1ccc(I)cc1F)N1CC(O)([C@@H]2CCCCN2)C1 [cobimetinib] | 1.85 ± 0.5 |
| C[C@H](NC(=O)CCC(F)(F)F)C(=O)N[C@@H]1C(=O)N(CCO)c2ncccc2-c2ccccc21 [crenigacestat] | 1.91 ± 0.4 |
| Cc1cc(Nc2ncc(Cl)c(Nc3ccccc3S(=O)(=O)C(C)C)n2)c(OC(C)C)cc1C1CCNCC1 [ceritinib] | 1.92 ± 0.77 |
| CS(=O)(=O)c1ccc(C(=O)Nc2ccc(Cl)c(-c3ccccn3)c2)c(Cl)c1 [vismodegib] | 1.67 ± 0.57 |
| NC(=O)c1cccc2cn(-c3ccc([C@@H]4CCCNC4)cc3)nc12 [niraparib] | 1.465 ± 0.0099 |
| Cc1cc(Nc2ncnc3ccc(NC4=NC(C)(C)CO4)cc23)ccc1Oc1ccn2ncnc2c1 [tucatinib] | 1.5 ± 0.23 |
| CCN(c1cc(C#CCN2CCOCC2)cc(C(=O)NCc2c(C)cc(C)[nH]c2=O)c1C)[C@H]1CC[C@H](N(C)CCOC)CC1 | 1.63 ± 0.4 |

same assay, conditions: 625 fM; days in culture: 74

| Compound | CTG-3D luminescence at 96 h |
| --- | --- |
| NC1(C(=O)N[C@@H](CCO)c2ccc(Cl)cc2)CCN(c2nc[nH]c3nccc2-3)CC1 [capivasertib] | 2.49 |
| CC(C)n1nc(-c2ccc3oc(N)nc3c2)c2c(N)ncnc21 [sapanisertib] | 2.98 |
| O=C(c1ccc(F)c(F)c1Nc1ccc(I)cc1F)N1CC(O)([C@@H]2CCCCN2)C1 [cobimetinib] | 2.55 |
| C[C@H](NC(=O)CCC(F)(F)F)C(=O)N[C@@H]1C(=O)N(CCO)c2ncccc2-c2ccccc21 [crenigacestat] | 2.02 |
| Cc1cc(Nc2ncc(Cl)c(Nc3ccccc3S(=O)(=O)C(C)C)n2)c(OC(C)C)cc1C1CCNCC1 [ceritinib] | 1.72 |
| CS(=O)(=O)c1ccc(C(=O)Nc2ccc(Cl)c(-c3ccccn3)c2)c(Cl)c1 [vismodegib] | 2.36 |
| NC(=O)c1cccc2cn(-c3ccc([C@@H]4CCCNC4)cc3)nc12 [niraparib] | 1.92 |
| Cc1cc(Nc2ncnc3ccc(NC4=NC(C)(C)CO4)cc23)ccc1Oc1ccn2ncnc2c1 [tucatinib] | 2.84 |
| CCN(c1cc(C#CCN2CCOCC2)cc(C(=O)NCc2c(C)cc(C)[nH]c2=O)c1C)[C@H]1CC[C@H](N(C)CCOC)CC1 | 1.61 |

tested on: HCI-001 (organoid from a triple-negative breast cancer xenograft); assay: as above; details: 12.5 pM; days in culture: 240

| Compound | CTG-3D luminescence at 96 h |
| --- | --- |
| NC1(C(=O)N[C@@H](CCO)c2ccc(Cl)cc2)CCN(c2nc[nH]c3nccc2-3)CC1 [capivasertib] | 1.55 |
| CC(C)n1nc(-c2ccc3oc(N)nc3c2)c2c(N)ncnc21 [sapanisertib] | 1.65 |
| O=C(c1ccc(F)c(F)c1Nc1ccc(I)cc1F)N1CC(O)([C@@H]2CCCCN2)C1 [cobimetinib] | 1.59 |
| C[C@H](NC(=O)CCC(F)(F)F)C(=O)N[C@@H]1C(=O)N(CCO)c2ncccc2-c2ccccc21 [crenigacestat] | 1.25 |
| Cc1cc(Nc2ncc(Cl)c(Nc3ccccc3S(=O)(=O)C(C)C)n2)c(OC(C)C)cc1C1CCNCC1 [ceritinib] | 1.82 |
| CS(=O)(=O)c1ccc(C(=O)Nc2ccc(Cl)c(-c3ccccn3)c2)c(Cl)c1 [vismodegib] | 1.85 |
| NC(=O)c1cccc2cn(-c3ccc([C@@H]4CCCNC4)cc3)nc12 [niraparib] | 1.8 |

— the supplement of paper PMC8882468
